In patent US20090087889A1, “Methods and compositions for growth hydrocarbons in botryococcus sp” (priority 2005, published 2009):

System: Botryococcus sp. colonies
Assay: Flotation (buoyancy) of bottom-dwelling colonies as visual assay of hydrocarbon content
Type: cell-based
From the text: Previous investigations (Ohmori, et al. 1984; and Wolf, et al, 1985) verified that colonies containing greater than 20% of dry weight as botryococcenoid hydrocarbons were buoyant and that colonies containing less than 5% hydrocarbons remained sunken at the bottom of the culture vessel, providing a visual method for selecting cells with commercial-grade hydrocarbons. […] Colonies in hydrocarbon-enhancement were placed […] without supplemental carbon dioxide gas to eliminate artifacts of flotation from bubbles. Environmental conditions were 150 μE/m^2/sec PAR to 1700 μE/m^2/sec PAR at 25-37° Centigrade. Nutrient chemicals were reagent grade in all laboratory-scale experiments. In field-scale tests, fertilizer grade chemical nutrients were provided. In order to minimize or eliminate ammonia, nitrates were optionally kiln dried prior to admixture. Supplementation with 0.1% to 100% carbon dioxide gas or carbonate (e.g., 10 mg/ml sodium bicarbonate or potassium bicarbonate) increased hydrocarbon synthesis substantially, especially, when under the highest light intensities with soluble elements of the present invention.
Stock cultures were taken from bottom-dwelling colonies that had been maintained in conventional liquid culture media, typified by approximately 1 ppm to 10 ppm phosphate, 0.01 ppm to 0.3 ppm iron, and 0.01 ppm to 0.5 ppm zinc, as for example, in Showa medium and other phycological media. Aqueous nutrient solutions were placed in sterile culture tubes and flasks and steam sterilized twice for 60 minutes. Following inoculation and growth, colonies were concentrated with overnight settling and approximately one million submerged green colonies were collected from the bottom of culture vessels. Equal volumes were resuspended into replicate culture vessels with equal volumes of enhancement media in the highest light intensities available in preparation for experiments. Control cultures were transferred into equal volumes of Showa medium and placed side by side under identical conditions as controls.

Compound: [Zn+2] [Zn^+2]
- colour of colonies after long exposure (100 ppm Zn^+2, approximately two to eight weeks): color change of the colonies toward amber

Compound: phosphates
- colour of colonies after long exposure (200 mM to 300 mM phosphates, approximately two to eight weeks): color change of the colonies toward amber
- state of colonies after long exposure (after two weeks or more in 300 mM phosphate): remained floating, but cleared to amber
- time until bottom-dwelling colonies began to rise to the surface (in water with up to 300 mM phosphates): ≤ 5 h
- total phosphate concentration that stimulated the rise of colonies to the surface (subtractive matrix analysis, most rapid in presence of soluble Mg, Mn, Fe and Zn^+2): greater than 80 mM
